These are literature values, as cited in patent US20070196500A1, “Composition for oral administration of tamsulosin hydrochloride and controlled release granule formulation comprising same” (priority 2004, published 2007).

Counter-ions that a name gives are not always drawn.

Take `CCOc1ccccc1OCCN[C@H](C)Cc1ccc(OC)c(S(N)(=O)=O)c1` [Tamsulosin hydrochloride, tamsulosin hydrochloride]: the water-solubility result is “low water-solubility”.
